Consider 15 compounds from patent US12384808B2, “Modulators of TNF-α activity” (Forward Therapeutics, Inc., priority 2022, dated 2025).

SMILES strings stand for the structures.

As usually defined, the IC50 is the concentration needed to halve the response being measured.

This experiment deals with TNFα (Homo sapiens, UniProt P01375). Description: TNFα Induced HEK Blue Cellular Assay. The format is cell-based. To be noted: HEK Blue TNFα reporter cells, TNFα 100 pg/ml, 24 hrs at 37° C., secreted alkaline phosphatase (QUANTI-Blue) read at 620 nm; read-out: IC50 value. An outline of the steps: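 IC50 fitted with a 4-parameter logistic model from % inhibition, normalised to DMSO controls with and without stimulation. Readout: QUANTI-Blue SEAP at 620 nm after 24 h, 37 °C exposure to TNFα (100 pg/ml final) and test compound at […]–0.5 nM final.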
Sequence of TNFα (P01375 77-233 limits assumed): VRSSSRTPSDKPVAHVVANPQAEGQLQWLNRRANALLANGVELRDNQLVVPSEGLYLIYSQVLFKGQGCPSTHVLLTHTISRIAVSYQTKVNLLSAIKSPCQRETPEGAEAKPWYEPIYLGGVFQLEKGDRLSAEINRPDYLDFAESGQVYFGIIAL
On to `[2H]C([2H])([2H])N1C(=O)c2cccc(OC(F)F)c2[C@H]2C[C@@H]1c1nc3ccc(-c4ccc(NCP(C)(C)=O)nc4)cc3n12` [Example 98, (7R,14R)-1-(difluoromethoxy)-11-(6-(((dimethylphosphoryl)methyl)amino)pyridin-3-yl)-6-(methyl-d3)-6,7-dihydro-7,14-methanobenzo[f]benzo[4,5]imidazo[1,2-a][1,4]diazocin-5(14H)-one], for which the IC50 was below 0.1 µM.
In the case of `[2H]C([2H])([2H])N1C(=O)c2cccc(OC(F)F)c2[C@H]2C[C@@H]1c1nc3ccc(-c4ccc(C(O)P(=O)(CC)CC)cc4)cc3n12` (stereo partly drawn) [Example 101, (7R,14R)-11-(4-((diethylphosphoryl)(hydroxy)methyl)phenyl)-1-(difluoromethoxy)-6-(methyl-d3)-6,7-dihydro-7,14-methanobenzo[f]benzo[4,5]imidazo[1,2-a][1,4]diazocin-5(14H)-one] it was below 0.1 µM.
Take `[2H]C([2H])([2H])N1C(=O)c2cccc(OC(F)F)c2[C@H]2C[C@@H]1c1nc3ccc(-c4ccc(P(C)(C)=O)cc4C(F)F)cc3n12` [Example 102, (7R,14R)-1-(difluoromethoxy)-11-(2-(difluoromethyl)-4-(dimethylphosphoryl)phenyl)-6-(methyl-d3)-6,7-dihydro-7,14-methanobenzo[f]benzo[4,5]imidazo[1,2-a][1,4]diazocin-5(14H)-one]: the IC50 is below 0.1 µM.
In the case of `[2H]C([2H])([2H])N1C(=O)c2cccc(OC(F)F)c2[C@H]2C[C@@H]1c1nc3ccc(-c4ccc(P(C)(C)=O)c(C(F)F)c4)cc3n12` [Example 103, (7R,14R)-1-(difluoromethoxy)-11-(3-(difluoromethyl)-4-(dimethylphosphoryl)phenyl)-6-(methyl-d3)-6,7-dihydro-7,14-methanobenzo[f]benzo[4,5]imidazo[1,2-a][1,4]diazocin-5(14H)-one] it was below 0.1 µM; in that of `[2H]C([2H])([2H])N1C(=O)c2cccc(OC(F)F)c2[C@H]2C[C@@H]1c1nc3ccc(-c4ccc(P(C)(C)=O)cc4C(F)(F)F)cc3n12` [Example 104, (7R,14R)-1-(difluoromethoxy)-11-(4-(dimethylphosphoryl)-2-(trifluoromethyl)phenyl)-6-(methyl-d3)-6,7-dihydro-7,14-methanobenzo[f]benzo[4,5]imidazo[1,2-a][1,4]diazocin-5(14H)-one], 0.1 to 1 µM.
For `[2H]C([2H])([2H])N1C(=O)c2cccc(OC(F)F)c2[C@H]2C[C@@H]1c1nc3ccc(-c4ccc(P(C)(C)=O)c(C)c4)cc3n12` [Example 105, (7R,14R)-1-(difluoromethoxy)-11-(4-(dimethylphosphoryl)-3-methylphenyl)-6-(methyl-d3)-6,7-dihydro-7,14-methanobenzo[f]benzo[4,5]imidazo[1,2-a][1,4]diazocin-5(14H)-one], the IC50 was below 0.1 µM.
`[2H]C([2H])([2H])N1C(=O)c2cccc(OC(F)F)c2[C@H]2C[C@@H]1c1nc3ccc(-c4cc(C)c(P(C)(C)=O)c(F)c4)cc3n12` [Example 106, (7R,14R)-1-(difluoromethoxy)-11-(4-(dimethylphosphoryl)-3-fluoro-5-methylphenyl)-6-(methyl-d3)-6,7-dihydro-7,14-methanobenzo[f]benzo[4,5]imidazo[1,2-a][1,4]diazocin-5(14H)-one]: the IC50 is below 0.1 µM.
With `[2H]C([2H])([2H])N1C(=O)c2cccc(OC(F)F)c2[C@H]2C[C@@H]1c1nc3ccc(-c4ccc(P(C)(C)=O)c(C)c4F)cc3n12` [Example 107, (7R,14R)-1-(difluoromethoxy)-11-(4-(dimethylphosphoryl)-2-fluoro-3-methylphenyl)-6-(methyl-d3)-6,7-dihydro-7,14-methanobenzo[f]benzo[4,5]imidazo[1,2-a][1,4]diazocin-5(14H)-one] the figure was below 0.1 µM; with `[2H]C([2H])([2H])N1C(=O)c2cccc(OC(F)F)c2[C@H]2C[C@@H]1c1nc3ccc(-c4cc(F)c(CP(C)(C)=O)cc4C)cc3n12` [Example 108, (7R,14R)-1-(difluoromethoxy)-11-(4-((dimethylphosphoryl)methyl)-5-fluoro-2-methylphenyl)-6-(methyl-d3)-6,7-dihydro-7,14-methanobenzo[f]benzo[4,5]imidazo[1,2-a][1,4]diazocin-5(14H)-one], below 0.1 µM; with `[2H]C([2H])([2H])N1C(=O)c2cccc(OC(F)F)c2[C@H]2C[C@@H]1c1nc3ccc(-c4ccc(P(C)(C)=O)c(F)n4)cc3n12` [Example 115, (7R,14R)-1-(difluoromethoxy)-11-(5-(dimethylphosphoryl)-6-fluoropyridin-2-yl)-6-(methyl-d3)-6,7-dihydro-7,14-methanobenzo[f]benzo[4,5]imidazo[1,2-a][1,4]diazocin-5(14H)-one], below 0.1 µM.
Regarding `[2H]C([2H])([2H])N1C(=O)c2cccc(OC(F)F)c2[C@H]2C[C@@H]1c1nc3ccc(-c4ccc(C(C)P(C)(C)=O)nc4)cc3n12` (stereo partly drawn) [Example 116, (7R,14R)-1-(difluoromethoxy)-11-(6-(1-(dimethylphosphoryl)ethyl)pyridin-3-yl)-6-(methyl-d3)-6,7-dihydro-7,14-methanobenzo[f]benzo[4,5]imidazo[1,2-a][1,4]diazocin-5(14H)-one], the IC50 is below 0.1 µM.
`[2H]C([2H])([2H])N1C(=O)c2cccc(OC(F)F)c2[C@H]2C[C@@H]1c1nc3ccc(-c4ccc(P(C)(C)=O)c(Cl)c4)cc3n12` [Example 117, (7R,14R)-11-(3-chloro-4-(dimethylphosphoryl)phenyl)-1-(difluoromethoxy)-6-(methyl-d3)-6,7-dihydro-7,14-methanobenzo[f]benzo[4,5]imidazo[1,2-a][1,4]diazocin-5(14H)-one]: the IC50 is below 0.1 µM.
In the case of `[2H]C([2H])([2H])N1C(=O)c2cccc(OC(F)F)c2[C@H]2C[C@@H]1c1nc3ccc(-c4ccc(C(C)(C)P(C)(C)=O)nc4)cc3n12` [Example 120, (7R,14R)-1-(difluoromethoxy)-11-(6-(2-(dimethylphosphoryl)propan-2-yl)pyridin-3-yl)-6-(methyl-d3)-6,7-dihydro-7,14-methanobenzo[f]benzo[4,5]imidazo[1,2-a][1,4]diazocin-5(14H)-one], the IC50 was below 0.1 µM.
In the case of `[2H]C([2H])([2H])N1C(=O)c2cccc(OC(F)F)c2[C@H]2C[C@@H]1c1nc3ccc(-c4ccc(P(C)(C)=O)c(Cl)n4)cc3n12` [Example 121, (7R,14R)-11-(6-chloro-5-(dimethylphosphoryl)pyridin-2-yl)-1-(difluoromethoxy)-6-(methyl-d3)-6,7-dihydro-7,14-methanobenzo[f]benzo[4,5]imidazo[1,2-a][1,4]diazocin-5(14H)-one] it was 0.1 to 1 µM; in that of `[2H]C([2H])([2H])N1C(=O)c2cccc(OC(F)F)c2[C@H]2C[C@@H]1c1nc3ccc(-c4ccc(P(C)(C)=O)c(C(F)(F)F)c4)cc3n12` [Example 122, (7R,14R)-1-(difluoromethoxy)-11-(4-(dimethylphosphoryl)-3-(trifluoromethyl)phenyl)-6-(methyl-d3)-6,7-dihydro-7,14-methanobenzo[f]benzo[4,5]imidazo[1,2-a][1,4]diazocin-5(14H)-one], 0.1 to 1 µM.
